In experiment [1] the test system is isolated LSECs (liver sinusoidal endothelial cells). The experiment in a line: SEM of fenestrations in isolated LSECs from young and old mice after 30 min drug treatment (second Example 7). The format is cell-based. The conditions noted are these: for Diameter / Frequency / Porosity: 30 min. As for the experimental part: 3-4 and 18-24 month old male C57/B16 mice were obtained from the Animal Resource Centre in Perth, Western Australia. Animals were housed at the ANZAC Research Institute animal house on a 12 hour light/dark cycle and provided with ad libitum access to food and water. Mice were not fasted prior to euthanasia by a single intraperitoneal injection with 100 mg/kg ketamine and 10 mg/kg xylazine in saline. The study was approved by the Animal Welfare Committee of the Sydney Local Health District and was performed in accordance with the Australian Code of Practice for the care and use of animals for scientific research (AWC 2016/009). All information provided accords with the ARRIVE guidelines.
As described previously (Cogger et al. J e52698, 2015 https://dx.doi.org/10.3791/52698), mouse LSEC isolation was performed by perfusion of the liver with collagenase. Non-parenchymal cells were removed by a two-step Percoll gradient and Kupffer cells were removed by selective adherence to plastic. LSECs (seeded at 0.5×10^6 cells/cm2) were cultured (37° C., 5% CO2) in serum free RPMI-1640 for 3.5 hours before use.
Cells were treated with various agents for 30 minutes to determine effects on fenestrations. All agents were dissolved in serum-free RPMI media. All experiments were performed in triplicate for both young and old mice. Actin was disrupted with 0.5 μg/ml cytochalasin D and lipid rafts were disrupted with 3.6 and 1.8 μg/ml 7-keocholesterol; dosages were selected. […] The serotonergic/phospholipase C pathway was promoted with DOI (0.1 μg/ml) and endothelin receptors were inhibited by bosentan (550, 55 and 5.5 ng/ml) Death receptor 4 was promoted with TRAIL (100, 10. 1, 0.1 and 0.01 ng/ml) and NAD+ was promoted with NMN (5000, 50, 10, 1 and 0.1 μg/ml).
SEM was performed as previous described (Corbin et al J Biol Chem 274: 13729-13732, 1999.). LSECs were fixed in 2.5% glutaraldehyde in 0.1M sodium cacodylate buffer, osmicated, dehydrated in graded ethanol and hexamethyl disilazane, mounted on stubs, sputter coated with platinum and examined using a JEOL 6380 Scanning Electron Microscope (JEOL Ltd, Japan). Images at 10,000× magnification were collected by a blinded observer and used to measure fenestration diameter and LSEC porosity using Image J (NIH, MD, USA). […] Fenestrations less than 30 nm and gaps more than 300 nm were excluded from analysis. Porosity was defined as the percentage of the cell membrane covered with fenestrations. Frequency was defined at the number of fenestrations per […].
Individual specifications of analyses are described in figures legends. All data are presented as mean±SD. Experimental design and analysis were performed in accordance with the APS guidelines described in Curran-Everett and Benos DJ. Adv Physiol Educ 31: 295-298, 2007.

Experiment [2] has as its system LSEC fenestrations. The experiment is described as follows: SEM of LSEC fenestrations after drug treatments (Example 2, FIGS. 1-6). The format is cell-based, mice. Conditions: for fenestration porosity: 0.1 μM; for change in fenestration diameter: Bosentan 0.1 μM, Sildenafil 300 ng/ml, TRAIL 1 μg/ml. An excerpt: Young and old C57B16 mice (n=3 young mice, age 3-4 and n=3 old mice, 20-24 months) were maintained under full SPF conditions and with ad libitum feeding. The study had the approval of the Sydney South West Area Health Service Animal Welfare Committee. Mice at 20-24 months are senescent. Animals were sacrificed withCO2 and livers immediately perfusion-fixed via a 23G needle inserted into the portal vein. Liver tissue was fixed with1% glutaraldehyde/4% para-formaldehyde in PBS (0.1M sucrose).
Drug treatments and dosages (shown superimposed on their corresponding image in FIGS. 1, and 2) were performed by incubating liver cells at 37° C., 5% CO2 for 30 mins using RPMI with or without dissolved drug. All images were taken by two blinded researchers using a SEM at 10,000×, scale bars of 1 μm are shown.
Each data point represents the average±SD of 8 images (as shown in FIGS. 1 and 2), 616-3312 fenestration raw data points were collected per treatment.

Experiment [3] relates to actin cytoskeleton of LSECs. The experiment in a line: dSTORM imaging of the actin cytoskeleton. The format is cell-based. Conditions: young mice. As for the experimental part: dSTORM imaging was performed using an in-house microscope. LSECs were prepared for dSTORM by washing twice with PBS and fixation with 4% paraformaldehyde for 30 mins. Then LSECs were washed twice with PBS, permeabilised with Triton-X for 90 secs, blocked with 5% bovine serum albumin for 1 hour, and stained with Alexa Flour phalloidin 488 (1:40) for 20 min prior to imaging. Cells were washed using PBS with 0.1% Tween and placed in OxEA buffer (30) for dSTORM visualisation and image capture. The dSTORM used 488 and 647 nm excitation from diode-pumped lasers (Coherent Inc, CA, USA). Excitation was delivered via a 1.49NA 60× oil-immersion TIRF objective (Olympus Australia, AUS). Fluorescence was captured on two separate sCMOS cameras (Imaging Development Systems GmbH, Germany). Data was collected for up to 40,000 images at around 75 fps. 5-8 whole cell images were collected by a blinded observer for each treatment dosage and processed using rapidSTORM open source software (Wolter et al. Nat Methods 9: 1040, 2012.). Each image was examined for all sieve plates and actin structures. Densitometry measurements were performed using 5-8 dSTORM images with data analysis performed using Image J software (NIH, MD, USA).

The subject of experiment [4] is lipid rafts and fenestrations of LSECs. The experiment is described as follows: 3D-SIM study of lipid rafts and fenestrations. The format is cell-based. An excerpt: Sieve plates containing fenestrations are intercalated between thickened areas of membrane (lipid rafts).

Entries after “also recorded” stand apart in the source; their conditions may differ.

With `CCOC(=O)C1=C(COCCN)NC(C)=C(C(=O)OC)C1c1ccccc1Cl` (stereo not shown) [Amlodipine, amlodipine], in experiment [1] (old mice, 5 ng/ml), the Diameter worked out at 119.67 ± 22.63 nm, the Frequency is listed as 3.56 ± 1.07 no/area and the Porosity worked out at 4.44 ± 0.29 %. In experiment [1] (old mice, 20 ng/ml), the “Change in Frequency, Old” value is listed as “↑ (ns)”; the “Change in Porosity, Old” value is “↑ (ns)”; the Diameter worked out at 125.00 ± 13.36 nm; the Frequency came out at 3.00 ± 0.66 no/area. In addition, the Porosity in experiment [1] (old mice, 20 ng/ml) amounted to 3.98 ± 0.48 %. In experiment [1] (young mice, 5 ng/ml), this molecule displayed a Diameter of 125.87 ± 9.30 nm, a Frequency of 3.47 ± 1.00 no/area and a Porosity of 4.73 ± 0.80%. Also, in experiment [1] (young mice, 20 ng/ml), the Diameter worked out at 123.66 ± 1.18 nm, the Frequency is on record as 4.67 ± 0.65 no/area and the Porosity is 6.44 ± 1.14 %. In experiment [2] (young mice, 20 ng/ml), the fenestration diameter is listed as 123.8±1.6 nm.
Consider `COc1ccccc1Oc1c(NS(=O)(=O)c2ccc(C(C)(C)C)cc2)nc(-c2ncccn2)nc1OCCO` [Bosentan, bosentan], for which the Diameter in experiment [1] (old mice, 5.5 ng/ml) came out at 131.03 ± 16.29 nm; in experiment [1] (old mice, 55 ng/ml), 121.14 ± 23.80 nm; in experiment [1] (old mice, 550 ng/ml) it was 118.64 ± 4.36 nm; in experiment [1] (young mice, 5.5 ng/ml), 129.55 ± 5.46 nm; in experiment [1] (young mice, 55 ng/ml), 132.12 ± 9.03 nm; in experiment [1] (young mice, 550 ng/ml) it was 133.73 ± 9.03 nm. The Frequency came to 3.14 ± 0.35 no/area in experiment [1] (old mice, 5.5 ng/ml); 2.31 ± 1.03 no/area in experiment [1] (old mice, 55 ng/ml); 1.46 ± 0.54 no/area in experiment [1] (old mice, 550 ng/ml); 3.66 ± 0.30 no/area in experiment [1] (young mice, 5.5 ng/ml); 3.20 ± 1.23 no/area in experiment [1] (young mice, 55 ng/ml); 2.30 ± 0.04 no/area in experiment [1] (young mice, 550 ng/ml). For the same molecule, the Porosity in experiment [1] (old mice, 5.5 ng/ml) is listed as 4.53 ± 0.59 %; in experiment [1] (old mice, 55 ng/ml), 3.21 ± 0.36%; in experiment [1] (old mice, 550 ng/ml), 1.86 ± 0.72%; in experiment [1] (young mice, 5.5 ng/ml), 5.18 ± 0.45%; in experiment [1] (young mice, 55 ng/ml) it was 4.48 ± 1.12%; in experiment [1] (young mice, 550 ng/ml) it was 3.66 ± 0.41%. The “effect on porosity and fenestration frequency (summary in words)” value in experiment [1] (young and old LSECs) is “LSECs from old mice only were responsive”. Further, the fenestration porosity is reported as 4.2±0.4% in experiment [2] (old mice) and 5.4±0.1% in experiment [2] (young mice). The “change in fenestration diameter” value in experiment [2] (old mice, 7KC 4.5 μM) is “No changes”; in experiment [2] (young mice) it was “No changes”. Besides, the “sieve plates and fenestration density on SEM images” value in experiment [2] (young and old mice) is “maintained sieve plates and increased fenestration density”. The “actin changes with drug treatments (dSTORM)” value in experiment [3] is on record as “Stress fibres; also recorded: Fused actin structure; also recorded: Individual fenestrations”.
As for `CCC(C)(C)C(=O)O[C@H]1C[C@@H](C)C=C2C=C[C@H](C)[C@H](CC[C@@H]3C[C@@H](O)CC(=O)O3)[C@H]21` [Simvastatin, simvastatin], in experiment [1] (old mice, 0.1 μg/ml), the “Change in Diameter, Old” value is “↑ (ns)”; the Diameter is 147.47 ± 6.47 nm; the Frequency was 1.89 ± 0.74 no/area. In experiment [1] (old mice, 1 μg/ml), the “Change in Diameter, Old” value is “↑ (ns)”; the Diameter is 145.96 ± 6.55 nm; the Frequency is on record as 1.88 ± 0.86 no/area. In experiment [1] (young mice, 0.1 μg/ml), the Diameter amounted to 144.35 ± 18.95 nm, the Frequency stood at 2.42 ± 0.55 no/area and the Porosity is 4.05 ± 0.41%. Further, in experiment [1] (young mice, 1 μg/ml), the Diameter was 126.55 ± 9.64 nm, the Frequency is given as 2.83 ± 0.51 no/area and the Porosity came out at 3.99 ± 0.55%. Moreover, the fenestration diameter in experiment [2] (old mice, both Simvastatin treatments) turned out to be 152.0±19.2 nm.
Regarding Triton X-100, the “effect on fenestrations and lipid rafts” value in experiment [4] was “decreased fenestrations and increased rafts”.
As to VEGF, the “effect on fenestrations and lipid rafts” value in experiment [4] was “depleted lipid rafts and increased fenestrations”.

For the origin of these results see patent US20210161894A1, “Compositions and Methods for Modulating Liver Endothelial Cell Fenestrations” (priority 2017, published 2021).
